Results taken from BigSolDB 2.1.

O=C(O)/C=C/c1ccc(Cl)cc1
solubility (mole fraction)
Details	283.15 K	288.15 K	293.15 K	298.15 K	303.15 K	308.15 K	313.15 K	318.15 K	323.15 K
in 1,4-dioxane	–	0.00826	0.0094	0.0106	0.0118	0.0132	0.0148	0.0158	0.018
in acetone	0.00214	0.00248	0.00303	0.00334	0.00388	0.00434	0.00509	0.00556	0.00654
in acetonitrile	0.000318	0.000351	0.000365	0.000425	0.000468	0.000515	0.000622	0.000803	0.00105
in ethanol	0.00136	0.00166	0.00184	0.00207	0.00238	0.00265	0.00317	0.00363	0.004
in ethyl acetate	0.00159	0.00166	0.0019	0.00214	0.00242	0.00266	0.00315	0.00379	0.00442
in isobutanol	0.00102	0.00125	0.00154	0.00177	0.00195	0.00223	0.00244	0.00282	0.00325
in isopropanol	0.00118	0.00141	0.00165	0.0019	0.00215	0.00255	0.0029	0.00359	0.00454
in methanol	0.00112	0.00123	0.00136	0.00155	0.00172	0.00187	0.00206	0.00233	0.00251
in methyl acetate	0.00142	0.00173	0.00201	0.00231	0.00262	0.00298	0.0033	0.00355	0.0038
in n-butanol	0.00123	0.00154	0.00184	0.00219	0.00249	0.00283	0.00314	0.0037	0.00427
in n-propanol	0.0012	0.00146	0.00177	0.002	0.00234	0.00266	0.00308	0.00361	0.00432
in water	5.3e-06	6.88e-06	8.16e-06	9.38e-06	1.16e-05	1.26e-05	1.51e-05	1.74e-05	2.06e-05
